Laboratory results from US4224329A, “2-Substitute d-trans-5-aryl-2,3,4,4a,5,9b-hexahydro-1H-pyrido[4,3-b]indoles” (Pfizer Inc., priority 1979, dated 1980).
pIC50: −log10 of the molar value. Where a name gives a salt, the structure may show the parent alone. Read-outs that look alike come from different tables or passages of the source.

Legend:
[1] = system: Amphetamine Stereotypy; test: Antagonism of Amphetamine Stereotypy in Rats (ED50 for blocking characteristic amphetamine cage movement); format: in vivo; conditions: s.c.; for ED50, 1 Hr.: 60 min; for ED50, 24 Hrs.: 1440 min; for ED50: Rattus norvegicus, sc
Protocol: The effects of the compounds of the present invention on prominent amphetamine-induced symptoms were studied in rats by a rating scale modeled after the one reported by Quinton and Halliwell, and Weissman. Groups of five rats were placed in a covered plastic cage measuring approximately 26 cm.×42 cm.×16 cm. […] They were then treated 1, 5 and 24 hrs. later with d-amphetamine sulfate, 5 mg./kg. intraperitoneally (i.p.). […] On the basis of dose-response data after amphetamine it was possible to determine the effective dose of the compound necessary to antagonize or block the characteristic amphetamine behavior of cage movement for fifty percent of the rats tested (ED50). The time of rating chosen coincides with the peak action of amphetamine which is 60-80 min. after treatment with this agent.
Employing the above-described procedure, the following 4a,9b-trans compounds were tested for their ability to block the behavior effects of amphetamine, the results being reported as the ED50 in mg./kg. at the indicated times: [drawing 30]
A. The following results were obtained on the mixture of diastereomers for those compounds wherein R contains a secondary alcohol group and on the single diastereomer of the other 4a, 9b-trans hexahydro-pyrido-indoles.
B. The results of tests in which compounds of the invention reported in Part A, above are compared with the corresponding δ-substituted-5-aryl-1,2,3,4-tetrahydropyrido[4,3-b]indoles of U.S. Pat. No. 4,001,263 are summarized below. For each pair the results obtained on the prior art compound (a) are given first and the results for the compound of the invention (b) are given second. Where indicated the test compound was also administered orally (p.o.) and tests were carried out for 48 hours.
C. […] In each case the compounds are of the formula
The tests were carried out for 72 hours.

[2] = target: dopamine receptors (Rattus norvegicus, UniProt P61169); test: Inhibition of 3H-Spiroperidol Binding to Dopamine Receptors (rat corpus striatum); parameters: species or system rats (Sprague-Dawley CD males); conditions: 0.5 nM 3H-spiroperidol, 10 minutes at 37° C.
[3] = Part C, isomers of Examples 13 and 14, hydrochloride
[4] = Part D, enantiomers by synthesis of Example 21, hydrochloride

Sequence of dopamine receptors (P61169 whole entry): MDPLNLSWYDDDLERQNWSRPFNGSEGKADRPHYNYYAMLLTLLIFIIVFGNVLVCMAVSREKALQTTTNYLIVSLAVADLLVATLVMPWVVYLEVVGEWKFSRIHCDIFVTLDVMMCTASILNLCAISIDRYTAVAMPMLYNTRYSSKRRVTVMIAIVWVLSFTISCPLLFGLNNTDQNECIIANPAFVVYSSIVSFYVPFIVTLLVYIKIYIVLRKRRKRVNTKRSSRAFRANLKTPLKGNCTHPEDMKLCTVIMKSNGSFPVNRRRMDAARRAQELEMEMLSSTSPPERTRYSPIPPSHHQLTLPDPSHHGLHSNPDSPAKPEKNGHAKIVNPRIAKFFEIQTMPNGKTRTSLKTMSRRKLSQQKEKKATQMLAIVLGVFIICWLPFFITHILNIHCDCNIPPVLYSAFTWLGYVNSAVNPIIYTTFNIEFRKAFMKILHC

For `OC(CCCN1CC[C@@H]2[C@@H](C1)c1cc(F)ccc1N2c1ccc(F)cc1)c1ccc(F)cc1` (single isomer, unassigned) [δ, trans 8-fluoro-5-(p-fluorophenyl)-2-[4-hydroxy-4(p-fluorophenyl)butyl]-2,3,4,4a,5,9b-hexahydro-1H-pyrido[4,3-b]indole hydrochloride], the “ED50, 1 Hr.” value [1, 3] was greater than 1000 micrograms/kilograms, the “ED50, 1 Hr.” value [1, 4] was greater than 10 mg/kg and the “ED50, 5 Hrs.” value ([1]; 5 hrs, Part D, enantiomers by synthesis of Example 21, hydrochloride, 300 min) was 5.7 mg/kg. The “ED50, 24 Hrs.” value [1, 3] was 320-1000 micrograms/kilograms, the “ED50, 24 Hrs.” value [1, 4] was greater than 10 mg/kg and the “ED50, 48 Hrs.” value ([1]; 48 hrs, Part D, enantiomers by synthesis of Example 21, hydrochloride, 2880 min) was greater than 10 mg/kg. The “ED50, 72 Hrs.” value ([1]; 72 hrs, Part D, enantiomers by synthesis of Example 21, hydrochloride, 4320 min) was greater than 10 mg/kg and the pIC50 [2] was 6.46.

`OC(CCCN1CC[C@H]2[C@H](C1)c1cc(F)ccc1N2c1ccc(F)cc1)c1ccc(F)cc1` (relative stereo) [αβγδ, dl-trans-8-Fluoro-5-(p-fluorophenyl)-2-[4-hydroxy-4-(p-fluorophenyl)butyl]-2,3,4,4a,5,9b-hexahydro-1H-pyrido[4,3-b]indole hydrochloride] showed an ED50 ([1]; 1 h, Part C, isomers of Examples 13 and 14, read-out: ED50, 1 Hr.) of 0.032 to 0.1 mg/kg, an ED50 ([1]; 5 h, Part C, isomers of Examples 13 and 14, read-out: ED50, 5 Hrs.) of 0.032 to 0.1 mg/kg and an ED50 ([1]; 24 h, Part C, isomers of Examples 13 and 14, read-out: ED50, 24 Hrs.) of 0.032 to 0.1 mg/kg. The pIC50 [2] was 7.68.
